The record followed here is US10266548B2, “Substituted benzylindazoles for use as Bub1 kinase inhibitors in the treatment of hyperproliferative diseases” (Bayer Intellectual Property GmbH, priority 2011, dated 2019).

Each structure is given as a SMILES string. Where “and” joins values, the source holds several entries; their conditions need not be identical. Equal values may be shown once. Read-outs that look alike come from different tables or passages of the source.

For assay [1], the target named is catalytic domain of human Bub1 (amino acids 704-1085) (Homo sapiens (Human), UniProt O43683). Briefly: Bub1 kinase assay (TR-FRET). In kind it is biochemical. The note with it: 10 μM ATP, 1 μM peptide substrate; read-out: Biological Assay 1: Bub1 kinase assay median IC50. An outline of the steps:
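Phosphoserine product detected by TR-FRET (Eu-labeled anti-mouse IgG/anti-phosphoserine antibody to streptavidin-XL665) after 1 h at 22 °C. IC50 from 4-parameter logistic fit.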
(In general: In TR-FRET formats the signal depends on donor and acceptor labels being close together.)

The next assay relates to HeLa cells. Briefly: Proliferation assay (HeLa cell line). It is filed as cell-based. The settings on record: read-out: Biological Assay 2: Proliferation assay (HeLa cell line) median IC50. Here is the method:
Cultivated tumor cells (cells were ordered from ATCC, except HeLa-MaTu and HeLa-MaTu-ADR, which were ordered from EPO-GmbH, Berlin) were plated at a density of 1000 to 5000 cells/well, depending on the growth rate of the respective cell line, in a 96-well multititer plate in 200 μL of their respective growth medium supplemented 10% fetal calf serum. After 24 hours, the cells of one plate (zero-point plate) were stained with crystal violet (see below), while the medium of the other plates was replaced by fresh culture medium (200 μl), to which the test substances were added in various concentrations (0 μM, as well as in the range of 0.001-10 μM; the final concentration of the solvent dimethyl sulfoxide was 0.5%). The cells were incubated for 4 days in the presence of test substances. Cell proliferation was determined by staining the cells with crystal violet: the cells were fixed by adding 20 μl/measuring point of an 11% glutaric aldehyde solution for 15 minutes at room temperature. After three washing cycles of the fixed cells with water, the plates were dried at room temperature. The cells were stained by adding 100 μl/measuring point of a 0.1% crystal violet solution (pH 3.0). After three washing cycles of the stained cells with water, the plates were dried at room temperature. The dye was dissolved by adding 100 μl/measuring point of a 10% acetic acid solution. […] The change of cell number, in percent, was calculated by normalization of the measured values to the aborbtion values of the zero-point plate (=0%) and the absorbtion of the untreated (0 μm) cells (=100%). The IC50 values were determined by means of a 4 parameter fit using the company's own software.

[2] abbreviates: Homo sapiens, 96 h, 4 days, crystal violet.

catalytic domain of human Bub1 (amino acids 704-1085), sequence (O43683 704-1085): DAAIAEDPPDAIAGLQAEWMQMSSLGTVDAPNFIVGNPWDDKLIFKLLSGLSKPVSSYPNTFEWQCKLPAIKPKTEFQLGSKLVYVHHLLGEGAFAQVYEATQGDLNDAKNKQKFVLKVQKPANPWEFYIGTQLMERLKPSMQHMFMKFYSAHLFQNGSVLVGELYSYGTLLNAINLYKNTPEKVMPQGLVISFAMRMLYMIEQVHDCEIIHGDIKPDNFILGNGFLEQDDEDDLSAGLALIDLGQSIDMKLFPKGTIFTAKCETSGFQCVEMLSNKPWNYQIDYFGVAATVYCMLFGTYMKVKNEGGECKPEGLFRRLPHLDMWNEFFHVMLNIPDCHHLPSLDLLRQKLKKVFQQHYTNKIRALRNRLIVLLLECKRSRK

Turning to `COc1cnc(-c2nn(Cc3ccc(C#N)cc3)c3ccccc23)nc1Nc1ccncc1` [Example 2-42-1, 4-({3-[5-methoxy-4-(pyridin-4-ylamino)pyrimidin-2-yl]-1H-indazol-1-yl}methyl)benzonitrile], the IC50 in assay [1] was 190 nM; in the assay with HeLa cells (setting [2]), not below 10 µM.

Turning to `COc1cnc(-c2nn(Cc3ccc(S(=O)(=O)N4CCOCC4)cc3)c3ccccc23)nc1Nc1ccncc1` [Example 2-43-1, 5-methoxy-2-{1-[4-(morpholin-4-ylsulfonyl)benzyl]-1H-indazol-3-yl}-N-(pyridin-4-yl)pyrimidin-4-amine], the IC50 in assay [1] is 1200 nM; in the assay on HeLa cells (setting [2]), not below 10 µM.

For the compound `COc1cnc(-c2nn(Cc3c(F)ccc(C)c3F)c3ccccc23)nc1Nc1ccncc1` [Example 2-48-1, 2-[1-(2,6-difluoro-3-methylbenzyl)-1H-indazol-3-yl]-5-methoxy-N-(pyridin-4-yl)pyrimidin-4-amine], the IC50 was 5.5 nM in assay [1] and not below 10 µM in the assay on HeLa cells (Homo sapiens, 96 h).

Turning to `COc1cnc(-c2nn(Cc3c(F)cc(C(N)=O)cc3F)c3ccccc23)nc1Nc1ccncc1` [Example 2-50-1, 3,5-difluoro-4-({3-[5-methoxy-4-(pyridin-4-ylamino)pyrimidin-2-yl]-1H-indazol-1-yl}methyl)benzamide], the IC50 in assay [1] was 11 nM; with HeLa cells (Homo sapiens, 96 h), not below 10 µM.

With `COc1cnc(-c2nn(Cc3c(F)cc(OCCOC(C)=O)cc3F)c3ccccc23)nc1Nc1ccncc1` [Example 2-51-1, 2-[3,5-difluoro-4-({3-[5-methoxy-4-(pyridin-4-ylamino)pyrimidin-2-yl]-1H-indazol-1-yl}methyl)phenoxy]ethyl acetate], the IC50 in assay [1] came to 10 nM; with HeLa cells (Homo sapiens, 96 h) it was 2.7 µM.

For the compound `CCCOc1cc(F)c(Cn2nc(-c3ncc(OC)c(Nc4ccncc4)n3)c3ccccc32)c(F)c1` [Example 2-52-1, 2-[1-(2,6-difluoro-4-propoxybenzyl)-1H-indazol-3-yl]-5-methoxy-N-(pyridin-4-yl)pyrimidin-4-amine], the IC50 in assay [1] came to 11 nM; in the assay on HeLa cells (Homo sapiens, 96 h), 2.1 µM.

`CCOc1cc(F)c(Cn2nc(-c3ncc(OC)c(Nc4ccncc4)n3)c3ccccc32)c(OC)c1` [Example 2-53-1]: the IC50 stood at 83 nM in assay [1] and 3.4 µM in the assay with HeLa cells (4 days, crystal violet).

As for `CCOc1cc(F)c(Cn2nc(-c3ncc(O)c(Nc4ccncc4)n3)c3ccccc32)c(F)c1` [Example 3-1, 2-[1-(4-ethoxy-2,6-difluorobenzyl)-1H-indazol-3-yl]-4-(pyridin-4-ylamino)pyrimidin-5-ol], the IC50 in assay [1] was 4.7 nM; in the assay with HeLa cells (Homo sapiens, 96 h) it was not below 10 µM.

As for `COc1ccc(Cn2nc(-c3ncc(O)c(Nc4ccncc4)n3)c3ccccc32)cc1` [Example 3-2, 2-[1-(4-methoxybenzyl)-1H-indazol-3-yl]-4-(pyridin-4-ylamino) pyrimidin-5-ol], the IC50 in assay [1] was 9.8 nM; with HeLa cells (Homo sapiens, 96 h), not below 10 µM.

`Oc1cnc(-c2nn(Cc3ccccc3F)c3ccccc23)nc1Nc1ccncc1` [Example 3-3, 2-[1-(2-fluorobenzyl)-1H-indazol-3-yl]-4-(pyridin-4-ylamino)pyrimidin-5-ol]: the IC50 in assay [1] is 15 nM; with HeLa cells (Homo sapiens, 96 h), not below 10 µM.

Consider `Oc1cnc(-c2nn(Cc3ccc(F)cc3)c3ccccc23)nc1Nc1ccncc1` [Example 3-4, 2-[1-(4-fluorobenzyl)-1H-indazol-3-yl]-4-(pyridin-4-ylamino) pyrimidin-5-ol], for which the results for the IC50 (in assay [1]; in the assay with HeLa cells (setting [2])) were 48 nM and not below 10 µM, respectively.

With `CCOc1cc(F)c(Cn2nc(-c3ncc(OCC4(CO)COC4)c(Nc4ccncc4)n3)c3ccccc32)c(F)c1` [Example 4-1, {3-[({2-[1-(4-ethoxy-2,6-difluorobenzyl)-1H-indazol-3-yl]-4-(pyridin-4-ylamino)pyrimidin-5-yl}oxy)methyl]oxetan-3-yl}methanol], the IC50 in assay [1] was 2.4 nM; in the assay on HeLa cells (Homo sapiens, 96 h) it was 3.5 µM.

Regarding `NS(=O)(=O)COc1cnc(-c2nn(Cc3ccccc3F)c3ccccc23)nc1Nc1ccncc1` [Example 4-3, 1-({2-[1-(2-fluorobenzyl)-1H-indazol-3-yl]-4-(pyridin-4-ylamino)pyrimidin-5-yl}oxy)methane-sulfonamide], the IC50 in assay [1] was 7.5 nM; in the assay on HeLa cells (Homo sapiens, 96 h), 14 µM.

Regarding `Fc1ccccc1Cn1nc(-c2ncc(OCCc3nnn[nH]3)c(Nc3ccncc3)n2)c2ccccc21` [Example 4-5-1, 2-[1-(2-fluorobenzyl)-1H-indazol-3-yl]-N-(pyridin-4-yl)-5-[2-(1H-tetrazol-5-yl)ethoxy] pyrimidin-4-amine], the results for the IC50 (in assay [1]; in the assay with HeLa cells (setting [2])) were 18 nM and not below 10 µM, respectively.

Turning to `CN(C)CCOc1cnc(-c2nn(Cc3ccc(F)cc3)c3ccccc23)nc1Nc1ccncc1` [Example 4-6, 5-[2-(dimethyl-amino)ethoxy]-2-[1-(4-ftuorobenzyl)-1H-indazol-3-yl]-N-(pyridin-4-yl)pyrimidin-4-amine], the IC50 in assay [1] worked out at 29 nM; in the assay on HeLa cells (Homo sapiens, 96 h), 3.6 µM.

For `Fc1ccccc1Cn1nc(-c2ncc(OCc3nnn[nH]3)c(Nc3ccncc3)n2)c2ccccc21` [Example 4-7, 2-[1-(2-fluorobenzyl)-1H-indazol-3-yl]-N-(pyridin-4-yl)-5-(1H-tetrazol-5-ylmethoxy) pyrimidin-4-amine], the IC50 was 35 nM in assay [1] and not below 10 µM with HeLa cells (setting [2]).

Turning to `CCOc1cc(F)c(Cn2nc(-c3ncc(OCCOC)c(Nc4ccncc4)n3)c3ccccc32)c(F)c1` [Example 4-10, 2-[1-(4-ethoxy-2,6-difluorobenzyl)-1H-indazol-3-yl]-5-(2-methoxyethoxy)-N-(pyridin-4-yl)pyrimidin-4-amine], the IC50 in assay [1] was 9 nM; in the assay on HeLa cells (Homo sapiens, 96 h), 4.4 µM.

In the case of `COCc1noc(COc2cnc(-c3nn(Cc4ccccc4F)c4ccccc34)nc2Nc2ccncc2)n1` [Example 4-13, 2-[1-(2-fluorobenzyl)-1H-indazol-3-yl]-5-{[3-(methoxymethyl)-1,2,4-oxadiazol-5-yl]methoxy}-N-(pyridin-4-yl)pyrimidin-4-amine], the IC50 was 76 nM and 7.6 nM in assay [1]; 8 µM in the assay on HeLa cells (Homo sapiens, 96 h).

In the case of `CCOC(=O)COc1cnc(-c2nn(Cc3c(F)cc(OCC)cc3F)c3ccccc23)nc1Nc1ccncc1` [Example 4-14, ethyl ({2-[1-(4-ethoxy-2,6-difluorobenzyl)-1H-indazol-3-yl]-4-(pyridin-4-ylamino)pyrimidin-5-yl}oxy)acetate], the IC50 in assay [1] was 12 nM; in the assay with HeLa cells (setting [2]), not below 10 µM.

As for `CCOc1cc(F)c(Cn2nc(-c3ncc(OCC(=O)N4CC(F)C4)c(Nc4ccncc4)n3)c3ccccc32)c(F)c1` [Example 4-21, 2-({2-[1-(4-ethoxy-2,6-difluorobenzyl)-1H-indazol-3-yl]-4-(pyridin-4-ylamino)pyrimidin-5-yl}oxy)-1-(3-fiuoroazetidin-1-yl)ethanone], the IC50 in assay [1] was 7.8 nM; in the assay on HeLa cells (Homo sapiens, 96 h), 3.8 µM.

With `CCOc1cc(F)c(Cn2nc(-c3ncc(OCCNC(=O)OC(C)(C)C)c(Nc4ccncc4)n3)c3ccccc32)c(F)c1` [Example 4-23, tert-butyl [2-({2-[1-(4-ethoxy-2,6-difluorobenzyl)-1H-indazol-3-yl]-4-(pyridin-4-ylamino)pyrimidin-5-yl}oxy)ethyl]carbamate], the results for the IC50 (in assay [1]; with HeLa cells (setting [2])) were 9.3 nM and 4.9 µM, respectively.

Turning to `CCOc1cc(F)c(Cn2nc(-c3nccc(Nc4ccncc4)n3)c3ccccc32)c(F)c1` [Example 5-1, 2-[1-(4-ethoxy-2,6-difluorobenzyl)-1H-indazol-3-yl]-N-(pyridin-4-yl)pyrimidin-4-amine], the IC50 in assay [1] worked out at 5.2 nM; in the assay with HeLa cells (Homo sapiens, 96 h), 1.4 µM.

`Fc1ccccc1Cn1nc(-c2nccc(Nc3ccncc3)n2)c2ccccc21` [Example 5-3, 2-[1-(2-fluorobenzyl)-1H-indazol-3-yl]-N-(pyridin-4-yl)pyrimidin-4-amine]: the IC50 in assay [1] came to 28 nM; in the assay on HeLa cells (Homo sapiens, 96 h) it was 7.4 µM.

Take `COc1cnc(-c2nn(Cc3c(F)cc(C4CC4)cc3F)c3ccccc23)nc1Nc1ccncc1` [Example 6-1, 2-[1-(4-cyclopropyl-2,6-difluorobenzyl)-1H-indazol-3-yl]-5-methoxy-N-(pyridin-4-yl)pyrimidin-4-amine]: the IC50 in assay [1] is 3.9 nM; in the assay on HeLa cells (setting [2]) it was 3.1 µM.

On to `COc1cnc(-c2nn(Cc3c(F)cc(C(C)=O)cc3F)c3ccccc23)nc1Nc1ccncc1` [Example 7-1, 1-[3,5-difluoro-4-({3-[5-methoxy-4-(pyridin-4-ylamino)pyrimidin-2-yl]-1H-indazol-1-yl}methyl)phenyl]ethanone], for which the IC50 stood at 3 nM in assay [1] and 4.4 µM in the assay with HeLa cells (Homo sapiens, 96 h).

With `COc1cnc(-c2nn(Cc3c(Cl)ccc(CO)c3Cl)c3ccccc23)nc1Nc1ccncc1` [Example 8-1, [2,4-dichloro-3-({3-[5-methoxy-4-(pyridin-4-ylamino)pyrimidin-2-yl]-1H-indazol-1-yl}methyl)phenyl]methanol], the IC50 in assay [1] turned out to be 7.4 nM; in the assay on HeLa cells (4 days, crystal violet) it was 3.2 µM.
